Results taken from patent US5817324A, “Use of arylpyrroles for the control of resistant insect populations” (American Cyanamid Company, priority 1997, dated 1998).

What was measured:
Assay type in all cases: in vivo
[1] = tested on: pyrethroid-resistant wild horn flies (Haematobia irritans); test: 24 hour treated filter paper bioassay, pyrethroid-resistant horn flies, with resistance factor (Example 1)
Procedure: (§1) Evaluation Of The Effect Of Test Compounds vs. Cypermethrin On Susceptible And Resistant Strains Of Horn Flies (Haematobia irritans).
(§2) In this bioassay, highly pyrethroid-resistant wild flies and flies of a pyrethroid-susceptible lab strain are used. All flies are held in plastic petri dishes and exposed to sequential rates of test compound residue on filter paper^1. A 1.25 inch hole is cut in the bottom half of the 100 mL petri dish and covered with fiberglass window screen. The bottom is used as the top in this bioassay, in order that the flies may be blood fed through the screened opening with a muslin pad saturated with citrated cattle blood.
(§3) The experiments are conducted in triplicate to determine 24 hour LC50 data for the test compound and cypermethrin on susceptible and pyrethroid-resistant horn flies. The experiments are conducted on site so that freshly captured pyrethroid-resistant horn flies can be used. On the exemplified site, very high levels of pyrethroid resistance had been selected through several years of pyrethroid cattle ear tag use^2. Wild pyrethroid-resistant horn flies are tested within 1 hour of capture to minimize check mortality. The resistance factor (RF) is determined by the following equation:
(§4) RF=Resistant LC50 .div.Susceptible LC50
(§5) The LC50 is the concentration in μlg/cm^2 of test com-pound required to kill 50% of the fly population tested. The LC50 values are determined from the mortality data using standard log probit analysis techniques^3, and are within 95% confidence limits^1. The data obtained is shown in Table I. The references listed below are incorporated herein by reference thereto.

[2] = tested on: Resistant strain of horn flies (Haematobia irritans); test: treated filterpaper-tarsal contact 24 hour bioassay, resistant horn flies, with resistance factor (Example 2); details: Table II; for Resistant LC50: resistant horn flies
Procedure: as §2, §3, §4, §5
(§6) Evaluation Of Test Compounds vs. Permethrin On Susceptible And Resistant Strains Of Horn Flies (Haematobia irritans)
(§7) Using essentially the standard treated filterpaper-tarsal contact 24 hour bioassay described in Example 1, the following test compounds and pyrethroid insecticide are evaluated: […]

[3] = tested on: pyrethroid-resistant Rowena strain sheep body lice; test: treated cotton square contact bioassay, pyrethroid-resistant sheep body lice, with resistance factor (Example 3); details: 16 hours
Procedure: (§8) Evaluation Of Test Compound Activity Against Susceptible And Resistant Sheep Body Lice
(§9) In this evaluation, test compounds are dissolved in acetone and diluted in a gradient series. One mL aliquots of the acetone dilutions are pipetted onto 6 cm cotton squares. The treated squares are dried and put into 9 cm petri dishes. Adult lice from the pyrethroid-susceptible Peak Hill strain and the pyrethroid-resitant Rowena strain are collected by suction from sheep, transferred onto each treated square and confined using a stainless steel ring (50 mm diameter×20 mm). After 16 hours, the lice are scored as dead, moribund or alive. In this bioassay, the test compound killed, rather than knocked-down lice. Each treatment is replicated. Standard log probit analysis techniques are used to determine the LC50 and LC99 values from the mortality data, and are within 95% confidence limits. The LC50 values are then used to determine the resistance factor (RF) as shown below.
as §4
(§10) The LC50 is the concentration in mg/L of test compound required to kill 50% of the lice population tested. The LC99 is the concentration in mg/L of test compound required to kill 99% of the lice population tested.

[4] = tested on: pyrethroid-susceptible lab strain horn flies (Haematobia irritans); test: 24 hour treated filter paper bioassay, pyrethroid-susceptible horn flies (Example 1)
Procedure: as §1, §2
as §3, with “equation: […]” for “equation:”
as §5

[5] = tested on: pyrethroid-susceptible Peak Hill strain sheep body lice; test: treated cotton square contact bioassay, pyrethroid-susceptible sheep body lice (Example 3); details: 16 hours
Procedure: as §8, §9, §10

[6] = tested on: Susceptible strain of horn flies (Haematobia irritans); test: treated filterpaper-tarsal contact 24 hour bioassay, susceptible horn flies (Example 2); details: Table II
Procedure: as §2
as §3, with “equation: […]” for “equation:”
as §5, §6, §7

[7] = Experiment 1, pyrethroid-resistant horn flies
[8] = Experiment 2, pyrethroid-resistant horn flies
[9] = Experiment 3, pyrethroid-resistant horn flies

With `CCOCn1c(-c2ccc(Cl)cc2)c(C#N)c(Br)c1C(F)(F)F` [Compound A, 4-bromo-2-(p-chlorophenyl)-1-(ethoxymethyl)-5-(trifluoromethyl)pyrrole-3-carbonitrile] the “RF (resistance factor; Resistant LC50 ÷ Susceptible LC50)” value (shortened to “RF”) ([1]; Experiment 1) was 0.30, the “Resistant LC50” value [1, 7] was 0.356 μg/cm^2 and the “RF” value ([1]; Experiment 2) was 0.14. For the same molecule, the “Resistant LC50” value [1, 8] was 0.294 μg/cm^2, the “RF” value ([1]; Experiment 3) was 0.23 and the “Resistant LC50” value [1, 9] was 0.287 μg/cm^2. The “RF” value [2] was 0.23, the “Resistant LC50” value [2] was 0.391 μg/cm^2 and the “Resistant LC50” value ([3]; Rowena strain) was 5.85 µg/mL. For the same molecule, the EC99 ([3]; Rowena strain, read-out: Resistant LC99) was 24.5 µg/mL, the “RF” value ([3]; sheep body lice) was 0.7048 and the “Susceptible LC50” value ([4]; Experiment 1) was 1.2 μg/cm^2. The “Susceptible LC50” value ([4]; Experiment 2) was 2.15 μg/cm^2, the “Susceptible LC50” value ([4]; Experiment 3) was 1.25 μg/cm^2 and the “Susceptible LC50” value [5] was 8.30 µg/mL. The EC99 ([5]; read-out: Susceptible LC99) was 52.8 µg/mL and the “Susceptible LC50” value [6] was 1.691 μg/cm^2.
For `CC1(C)C(C=C(Cl)Cl)C1C(=O)OC(C#N)c1cccc(Oc2ccccc2)c1` (centres unmarked) [Compound B, Cypermethrin, reference compound], the “RF” value ([1]; Experiment 1) was 640, the “Resistant LC50” value [1, 7] was 79.02 μg/cm^2 and the “RF” value ([1]; Experiment 2) was 1144. The “Resistant LC50” value [1, 8] was 65.20 μg/cm^2, the “RF” value ([1]; Experiment 3) was 3636 and the “Resistant LC50” value [1, 9] was 47.27 μg/cm^2. For the same molecule, the “Susceptible LC50” value ([4]; Experiment 1) was 0.122 μg/cm^2, the “Susceptible LC50” value ([4]; Experiment 2) was 0.057 μg/cm^2 and the “Susceptible LC50” value ([4]; Experiment 3) was 0.013 μg/cm^2.
With `N#Cc1c(-c2ccc(Cl)cc2)[nH]c(C(F)(F)F)c1Br` [Compound C, 4-Bromo-2-(p-chlorophenyl)-5-(trifluoromethyl)pyrrole-3-carbonitrile] the “RF” value [2] was 0.088, the “Resistant LC50” value [2] was 1.877 μg/cm^2 and the “Susceptible LC50” value [6] was 21.237 μg/cm^2.
For `CCOCn1c(-c2ccc(Cl)cc2)c(C#N)c(Cl)c1C(F)(F)F` [Compound D, 4-Chloro-2-(p-chlorophenyl)-1-(ethoxymethyl)-5-(trifluoromethyl)pyrrole-3-carbonitrile], the “RF” value [2] was 0.123, the “Resistant LC50” value [2] was 1.066 μg/cm^2 and the “Susceptible LC50” value [6] was 8.692 μg/cm^2.
In the case of `CC1(C)C(C=C(Cl)Cl)C1C(=O)OCc1cccc(Oc2ccccc2)c1` (centres unmarked) [Compound E, Permethrin, reference compound], the “RF” value [2] is reported as 80.0, the “Resistant LC50” value [2] is reported as 8.16 μg/cm^2 and the “Susceptible LC50” value [6] is reported as 0.102 μg/cm^2.
